Assay results as given in article PMC6696115, “Characterization of Antimicrobial, Antioxidant, and Leishmanicidal Activities of Schiff Base Derivatives of 4-Aminoantipyrine” (Molecules, 2019).
Converted amounts (≈) assume the structure as drawn.

Tests used:
[1] = test system: Enterococcus faecalis ATCC 29212; assay: antimicrobial serial microdilution, E. faecalis; type: cell-based; conditions: serial microdilution, 37 °C, 24 h
Protocol: (§1) The in vitro antifungal and antimicrobial activities were determined by testing the Schiff bases against the fungi Saccharomyces cerevisiae, Candida albicans, and Aspergillus niger and the bacteria Staphylococcus aureus, Enterococcus faecalis (Gram-positive), Pseudomonas aeruginosa, and Escherichia coli (Gram-negative).
(§2) The bacterial inoculum was prepared by emulsifying overnight colonies from an agar medium in broth (Mueller–Hinton broth). The suspensions were adjusted to a final organism density of 5 × 10^5 colony former units (cfu)/mL. […] The emulsifying of A. niger cultures was done by pouring 5 mL of saline and 0.1% of polysorbate 80 over the Petri dishes. Then, 100 µL of this suspension were diluted in 5 mL of saline and adjusted to an optical density of 0.1 at 530 nm. For S. cerevisiae, fresh exponential YPAD (yeast extract 1%, peptone 2%, adenine 0.004%, […]) cultures were adjusted to an optical density of 0.5 at 600 nm, and then diluted to the equivalent of 1 × 10^4 cells/mL (10^−3 dilution). Stock solutions of Schiff bases were prepared by dissolving them in DMSO at 10 mg/mL. […] The range of concentrations used was empirically selected for each organisms and the Schiff base. Drug sensitivities were assayed by serial dilutions in 96-well plates as previously described. A row with media and cells but without drug was the positive control. The blank was done by preparing a row with media and drugs, but without cells. Plates were fitted with a tight lid before incubation to prevent desiccation. […] The minimum bactericidal concentration (MBC) and fungicidal concentration (MFC) were determined by spreading 100 µL of culture from each well onto a plate (Mueller–Hinton agar for bacteria, Sabouraud dextrose agar for fungi except S. cerevisiae, and YPAD for S. cerevisiae).

[2] = DPPH radical scavenging assay; type: biochemical; conditions: 30 min, room temperature, dark, absorbance 515 nm
Protocol: This was used immediately. The experimental procedure was adapted from the literature. Briefly, in a 96-well plate, 100 µL of solution of DPPH (2, 2-diphenyl-1-picrylhydrazyl) radical (0.2 mM in methanol) was added to 100 µL of methanolic solutions of 3a–j, 4, or 5, prepared as serial two-fold dilutions from the stock solution. Standards were also prepared in the same concentrations.
The percentage of DPPH scavenging was then calculated by using the following formula: % DPPH scavenging=100∗Asample+DPPH−Asample blank/ADPPH−Asolvent

[3] = test system: Candida albicans ATCC 10231; assay: antimicrobial serial microdilution, C. albicans; type: cell-based; conditions: Candida albicans, ATCC10231; serial microdilution, 35 °C, 48 h
Protocol: as §1, §2

[4] = test system: promastigotes from L. mexicana (M379); assay: leishmanicidal activity, MTT colorimetric assay; type: cell-based; conditions: Leishmania mexicana, 48 h exposure, 1% DMSO
Protocol: Leishmanicidal activities of all Schiff bases were evaluated by measuring promastigote mitochondrial activity using MTT colorimetric assay as described previously. […] The medium was renewed every four days. Parasite density was determined in a Neubauer chamber.
Into each well of a 96-well cell culture dish was dispensed 1 × 10^6 parasites. A stock solution of each of the Schiff Base was prepared in DMSO, and serial dilutions were added to the parasite suspension, keeping the solvent concentration at 1%. The final volume was 100 µL for each well and triplicate conditions were carried out. Pentamidine treatment (100 µg/mL) and untreated parasites were used as positive control and negative control, respectively. After exposure to the compounds for 48 h in culture medium, 10 µL of a solution of 5 mg/mL MTT dissolved in PBS was added to each well. […] Later, the plate was centrifuged at 4400 rpm for 10 min and the culture medium was then aspirated. Next, 100 µL of DMSO were added into each well to solubilize the formazan and the plate was shaken for 5 min. The colored formazan salt was measured by recording changes in absorbance at 570 nm using a microplate reader, a BioTek Synergy HT spectrophotometer. A reference wavelength of 630 nm was used to subtract background. Optical densities were analyzed as the quantity of formazan is directly proportional to the number of viable parasites. Data were analyzed with the statistical software GraphPad Prism.

[5] = test system: Aspergillus niger ATCC 6275; assay: antimicrobial serial microdilution, A. niger; type: cell-based; conditions: Aspergillus niger, ATCC6275; serial microdilution, 96-well plates, 35 °C, 48 h, max 2% DMSO
Protocol: as §1, §2

[6] = test system: S. cerevisiae (backgrounds W303 and BY4741); assay: antimicrobial serial microdilution, S. cerevisiae; type: cell-based, Saccharomyces cerevisiae; conditions: Saccharomyces cerevisiae; serial microdilution, 35 °C, 48 h; read-out: MIC S. cerevisiae
Protocol: as §1, §2

[7] = test system: Staphylococcus aureus ATCC 29213; assay: antimicrobial serial microdilution, S. aureus; type: cell-based; conditions: serial microdilution, 37 °C, 24 h
Protocol: as §1, §2

[8] = test system: Escherichia coli ATCC 25922; assay: antimicrobial serial microdilution, E. coli; type: cell-based; conditions: serial microdilution, 37 °C, 24 h
Protocol: as §1, §2

P. aeruginosa ATCC 27853 = assay: antimicrobial serial microdilution, P. aeruginosa; type: cell-based; conditions: Pseudomonas aeruginosa, ATCC27853, 37 °C, 24 h
Protocol: as §1, §2

[9] = carcinogenicity group; ref IARC; cited from earlier work
RAW 264.7 cells = assay: cell viability, MTT dye assay; type: cell-based, murine; conditions: RAW 264.7, exposure to 400 µM, 48 h
Protocol: The specificity and selectivity for the pathogen target is a key point for any potential drug.
The medium was renewed once a week. The viability was determined using MTT (thiazolyl blue tetrazolium bromide) dye assay as described previously for leishmanicidal activity assessment, with some variations. Here, 5 × 10^4 cells/well in a final volume of 100 µL were deposited into a 96-well plate in triplicate. Saponin (2 and 4 mg/mL) and untreated cells were used as the positive control and negative control, respectively. Schiff bases were dissolved in DMSO to obtain different serial concentrations (0.01–2000 µM). […] Cells were pelleted by centrifugation at 4400 rpm for 10 minutes and the media was removed. Next, 100 µL/well of DMSO were added and the absorbance at 570 nm was recorded. A reference wavelength of 630 nm was used for background subtraction.

[10] = Enterococcus faecalis, ATCC29212
[11] = Staphylococcus aureus, ATCC29213

| SMILES | MIC [1, 10] [µg/mL] | IC50 [2] [µM] | MIC [3] [µg/mL] | IC50 [4] [µM] | MIC [5] [µg/mL] | MIC [6] [µg/mL] | MIC [7, 11] [µg/mL] | MIC ([8]; Escherichia coli, ATCC25922) [µg/mL] | MIC (P. aeruginosa ATCC 27853) [µg/mL] | further results |
| --- | --- | --- | --- | --- | --- | --- | --- | --- | --- | --- |
| COc1cc(C=Nc2c(C)n(C)n(-c3ccccc3)c2=O)cc(OC)c1O [Compound 3j, 4-(4-Hydroxy-3,5-dimethoxybenzylideneamino)-1,5-dimethyl-2-phenyl-1H-pyrazol-3(2H)-one] | > 200 | 15.7 ± 3.2 | > 200 | > 200 | > 200 | > 200 | > 200 | > 200 | > 200 | melting point: 259.2 to 260.7 °C |
| N.N.[Cl][Pt][Cl] [Cisplatin] | – | – | – | – | – | – | – | – | – | IARC: group of classification of IARC [9]: 2A |
| CN(Cc1cnc2nc(N)nc(N)c2n1)c1ccc(C(=O)N[C@@H](CCC(=O)O)C(=O)O)cc1 [Methotrexate] | – | – | – | – | – | – | – | – | – | IARC: group of classification of IARC [9]: 3 |
| O=C(O)c1cn(C2CC2)c2cc(N3CCNCC3)c(F)cc2c1=O [CP, ciprofloxacin, reference compound] | 1.15 ± 0.42 (≈ 3.47 µM) | – | – | – | – | – | 0.44 ± 0.09 (≈ 1.33 µM) | 0.15 ± 0.009 (≈ 0.453 µM) | 0.47 ± 0.1 (≈ 1.42 µM) | IC50 [1, 10]: 0.49 µg/mL (≈ 1.48 µM); NIC E. faecalis ([1]; noninhibitory concentration): 0.30 ± 0.07 µg/mL; IC50 [7, 11]: 0.1 µg/mL (≈ 0.302 µM); NIC S. aureus ([7]; noninhibitory concentration): 0.06 ± 0.02 µg/mL; IC50 ([8]; Escherichia coli, ATCC25922): 0.07 µg/mL (≈ 0.211 µM); NIC E. coli ([8]; noninhibitory concentration): 0.06 ± 0.003 µg/mL; IC50 (P. aeruginosa ATCC 27853): 0.94 µg/mL (≈ 2.84 µM) |
| O=C(O)/C=C/c1ccc(O)c(O)c1 [caffeic acid, reference compound] | – | 16.2 ± 2.4 | – | – | – | – | – | – | – | – |
| O=C1O[C@H]([C@@H](O)CO)C(O)=C1O [ascorbic acid, reference compound] | – | 14.5 ± 2.2 | – | – | – | – | – | – | – | – |
| O=c1c(O)c(-c2ccc(O)c(O)c2)oc2cc(O)cc(O)c12 [quercetin, reference compound] | – | 7.3 ± 1 | – | – | – | – | – | – | – | – |
| Cc1c(N=Cc2ccc(O)c(O)c2)c(=O)n(-c2ccccc2)n1C [Compound 3i, 4-(3,4-Dihydroxybenzylideneamino)-1,5-dimethyl-2-phenyl-1H-pyrazol-3(2H)-one] | > 200 | 18.9 ± 2.4 | > 200 | > 200 | > 200 | > 200 | > 200 | > 200 | > 200 | % Live Cells (RAW 264.7 cells): 34.4 ± 2.4% |
| Cc1c(/N=C/c2ccco2)c(=O)n(-c2ccccc2)n1C [Compound 4, 4-(2-furfurilideneamino)-1,5-dimethyl-2-phenyl-1H-pyrazol-3(2H)-one] | > 200 | > 200 | > 200 | > 200 | > 200 | > 200 | > 200 | > 200 | > 200 | % Live Cells (RAW 264.7 cells): 23.8 ± 3.4% |
